Experimental data published in patent US20250382330A1, “IMMUNOLOGICALLY ACTIVE POLYPEPTIDE” (CDRES PHARMA LLC, priority 2022, published 2025).
Entries after “also recorded” stand apart in the source; their conditions may differ. Read-outs that look alike come from different tables or passages of the source. Each block holds one molecule with its values, some of them ahead of it. Ends that are not written are not given here.

How the values were obtained:
[1] = Solubility of peptideX2-13 modifications in aqueous buffer; format: physicochemical; settings: for solubility, comparative: modification (10) vs peptideX2-13, modification (11) vs (10), reversed core sequence
Experimental: Various modifications of peptideX2-13 were tested for solubility (see Table 2).

[2] = Tolerability / adverse effects of intravenous dosing in the Lewis rat RA model; format: in vivo; settings: for adverse effects: 500 μg/ml, intravenous
Experimental: On day 15, the rats were divided into treatment groups and were dosed intravenously on a daily basis for the next 15 days (except as noted) with the pentide YLQMN (SEQ ID NO: 5)-containing PeptideX2 (SEQ ID NO: 1) to achieve final circulating concentrations of PeptideX2 peptide as follows: 0 μg/ml (vehicle control: 0.2% acetic acid-Dulbecco's phosphate buffered saline (PBS-D), pH 6.0); 100 μg/ml vehicle; 200 μg/ml vehicle, and 500 μg/ml vehicle per rat/per day. As a positive control for anti-inflammatory activity, daily dosing of a control rat with prednisolone at 10 mg/kg/day was used. The arthritis index was calculated daily for each viable rat throughout the 30-day study.
B. Stability, aggregation, and toxicity of the pentide YLQMN (SEQ ID NO: 5)-containing polypeptides PeptideX2 (SEQ ID NO: 1) and G2-PeptideX2 (SEQ ID NO: 2).
Eleven Lewis rats were prepared using the collagen induced arthritis protocol. At day 15 thru day 30, three rats were given daily dosing of PeptideX2-13 (SEQ ID NO: 3) at 100 μg/ml, three rats were given daily dosing of PeptideX2-13 (SEQ ID NO: 3) at 250 μg/ml, and three rats were given daily dosing of PeptideX2-13 (SEQ ID NO: 3) at 500 μg/ml; as a positive control group, two rats were given prednisolone at 10 mg/kg/day.
The rats were weighed, scored for signs of arthritis and assigned to various treatment groups of one or more rats to each group. For the prednisolone control group, 200.85 mg prednisolone 21-hemisuccinate sodium salt (Sigma, Cat. P4153) was dissolved in 15 ml de-ionized water to prepare a 10 mg/ml solution which was stored at 4-8° C. when not in use. Rats in the study groups were dosed daily from day 15 through day 30 according to the formula for which a rat weighing (g)×64 ml/1000 g (represents the total blood volume) multiplied by the test product dose/test product concentration to determine the total volume to be injected into the animal per day to achieve that desired estimated blood concentration. Rats were weighed and scored daily during the treatment phase of the experiment and the results recorded and reported.

[3] = first renal transplantations, cited from earlier work
[4] = system: collagen-induced arthritis in Lewis rats; experiment: Collagen-induced arthritis in Lewis rats, daily arthritis index; format: in vivo, Lewis rat; settings: positive control, 10 mg/kg/day
Experimental: A. Collagen-Induced Lewis Rat Model of Rheumatoid Arthritis (RA)-PeptideX2 (SEQ ID NO: 1). The Lewis rat system is an art-accepted in vivo animal model of collagen-induced rheumatoid arthritis. Lewis rats obtained from a commercial laboratory supply vendor were maintained during a quarantine period under standard animal care conditions and found to be free of any clinical signs of disease or distress. Bovine type II collagen (10 mg, Chondrex, Inc., Redmond, WA) was dissolved in 2.5 ml 0.1M acetic acid and stirred overnight at 4-8° C. in the dark, and then one ml of this collagen solution was emulsified in one ml of incomplete Freund's adjuvant (ICFA, Sigma, St. Louis, MO) on an ice bath. On day zero, each of five rats was injected with 0.2 ml of collagen/ICFA emulsion at two sites and then observed for the next 30 days with the arthritis index (AI) calculated daily using the 16-point scoring method of Bevaart et al. (2010 Meths. Mol. Biol. 602:181: 0 points, no joint swelling or edema; 1 point, slight edema and erythema limited to foot and/or ankle; 2 points, edema and erythema in the toes and most ankle joints; 3 points, severe edema and erythema in the paw below the ankle joint; 4 points, edema and erythema of all four paws including the ankle joint). […]
6 Lewis rats (ENVIGO, female, 190-210g) were received, individually examined, and housed. […] Rat weights were recorded daily. […]

[5] = biological target: T1, human TLR2 (human, UniProt O60603 21-784); experiment: NF-κB SEAP reporter on human TLR panel; binding inferred from reporter activity
T1 construct: whole, on cells; Expressed in HEK293 NF-κB/SEAP reporter cells; also called hTLR2; toll-like receptor 2
T1 sequence (O60603 21-784): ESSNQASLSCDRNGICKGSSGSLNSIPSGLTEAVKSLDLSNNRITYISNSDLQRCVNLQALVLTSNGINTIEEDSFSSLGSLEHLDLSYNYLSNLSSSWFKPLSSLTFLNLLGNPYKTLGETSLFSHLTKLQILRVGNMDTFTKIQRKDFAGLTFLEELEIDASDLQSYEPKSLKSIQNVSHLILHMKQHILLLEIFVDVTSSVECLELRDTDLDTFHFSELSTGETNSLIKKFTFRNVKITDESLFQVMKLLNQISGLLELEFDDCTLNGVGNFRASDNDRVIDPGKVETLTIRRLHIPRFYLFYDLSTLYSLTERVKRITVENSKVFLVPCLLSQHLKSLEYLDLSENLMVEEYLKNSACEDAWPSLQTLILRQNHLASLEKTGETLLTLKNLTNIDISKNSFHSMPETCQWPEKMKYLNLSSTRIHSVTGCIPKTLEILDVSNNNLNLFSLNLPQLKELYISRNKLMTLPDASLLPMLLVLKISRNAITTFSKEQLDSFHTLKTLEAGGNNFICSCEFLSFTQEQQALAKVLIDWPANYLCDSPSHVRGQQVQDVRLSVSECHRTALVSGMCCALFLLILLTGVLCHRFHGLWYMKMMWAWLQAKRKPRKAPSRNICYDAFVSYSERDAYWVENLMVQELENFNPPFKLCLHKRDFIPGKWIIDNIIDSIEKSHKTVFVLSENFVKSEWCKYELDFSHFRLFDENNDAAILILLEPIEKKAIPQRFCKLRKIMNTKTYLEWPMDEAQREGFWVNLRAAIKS

[6] = biological target: T1, human TLR2; experiment: NF-κB SEAP reporter in HEK293 cells expressing human TLR2, 200 µg/ml (FIG. 6); binding inferred from reporter activity
Experimental: Human Toll-like receptor ligand screening was performed using test samples containing a peptide of interest at 200 μg/ml. The general procedure consisted of testing for NF-κB activation in HEK293 cells expressing a given TLR. The samples were tested against seven different human TLRs (TLR2, 3, 4, 5, 7, 8, 9). The media added to the wells were designed for the detection of NF-κB induced SEAP (secreted embryonic alkaline phosphatase) expression. After 16-24 hours of incubation, the optical density (OD) was read at 650 nm on a Molecular Devices SpectraMax 340PC absorbance detector.

[7] = buffer (0.2% acetic acid, 0.375M Hepes, 0.375% glycerol, pH 7), no concentration stated

Molecule: GKAAYLQMNAAKG [PeptideX2-13]
- Solubility [1, 7]: Soluble in buffer
- tolerability in animal model compared with PeptideX2 ([2]; summary statement): tolerated and not toxic at a certain higher concentrations than was the case for previously described PeptideX2

- Solubility ([1]; buffer, at 2 mg/ml): Soluble in buffer
Molecule: GKAYLQMNAKG [SEQ ID NO: 13]

- Solubility ([1]; buffer, at 2 mg/ml): Soluble in buffer
Molecule: GRAAYLQMNAARG [K2R/K12R-substituted PeptideX2-13]

Molecule: C=CC[C@@H]1/C=C(\C)C[C@H](C)C[C@H](OC)[C@H]2O[C@@](O)(C(=O)C(=O)N3CCCC[C@H]3C(=O)O[C@H](/C(C)=C/[C@@H]3CC[C@@H](O)[C@H](OC)C3)[C@H](C)[C@@H](O)CC1=O)[C@H](C)C[C@@H]2OC [TAC, tacrolimus]
- graft survival rate ([3]; 5 years post-transplant): 77%
- graft survival rate ([3]; 10 years post-transplant): 60%

- Solubility [1, 7]: insoluble in aqueous buffer
Molecule: GYLQMNG [modification (7), GYLQMNG]

Molecule: Cn1cnc([N+](=O)[O-])c1Sc1ncnc2nc[nH]c12 [AZA, azathioprine]
- graft survival rate ([3]; 5 years post-transplant): 56%
- graft survival rate ([3]; 10 years post-transplant): 46%

Molecule: KSIAYLQMNSLK [PeptideX2, reference compound]
- adverse effects [2]: went into respiratory distress and died immediately
- outcome (death) ([2]; single IV dose to achieve 300 μg/ml, thirty-eight minutes after injection): went into convulsions again and died

- Solubility ([1]; at 5 mg/ml concentration): Insoluble at
- solubility, comparative [1]: no significant difference
Molecule: GRSSANMQLYASSRG [modification (11)]

- Solubility ([1]; at 5 mg/ml concentration): Insoluble at
- solubility, comparative [1]: less solubility compared to peptideX2-13
Molecule: GRSSAYLQMNASSRG [modification (10)]

Molecule: C[C@]12C=CC(=O)C=C1CC[C@@H]1[C@@H]2[C@@H](O)C[C@@]2(C)[C@H]1CC[C@]2(O)C(=O)CO [prednisolone]
- arthritis index [4]: potent and sustained reduction of the arthritis index; also recorded: decreased

- Solubility ([1]; buffer, at 2 mg/ml): Soluble in buffer
Molecule: GKYLQMNKG [SEQ ID NO: 22]

- Solubility ([1]; buffer, at 2 mg/ml): Soluble in buffer
Molecule: PKAAYLQMNAAKP [SEQ ID NO: 12]

Molecule: YLQMN [pentide, YLQMN]
- adverse effects [2]: No adverse effects

- Solubility ([1]; buffer, at 2 mg/ml): Soluble in buffer
Molecule: GKAANMQLYAAKG [SEQ ID NO: 17]

- binding result [5]: binds
Molecule: KSIAYLQMNSLK [PeptideX2 (KSIAYLQMNSLK)]

- binding result [6]: binds
B1: reverse modified peptideX2 (NMQLY) (peptide)
peptide: NMQLY
notes: Printed as NMQLY; also called reverse core; reverse-peptideX2
